# Test results as given in patent EP1507010B1, “Control of the gene expression in eukaryotic cells” (priority 1999, dated 2001).
# Experiments:
# [1] = biological target: T1, HA-VP16-TraR fusion (TraR from Agrobacterium strain A348 fused to VP16 activation domain; pMON53030) (UniProt P06492+P33905); experiment: Transient GUS reporter assay in transfected carrot protoplasts with VP16-TraR effector; type: cell-based, Agrobacterium tumefaciens; design: + inducer (average of the GUS activities) / + inducer (GUS activity, average) / GUS activity, average (with AHL or analog at the stated concentration) / GUS activity, average (+ inducer) / GUS activity, average: unit not given here; settings: for GUS activity, average ('- inducer'): 1 µM of the AHL or analog; for GUS activity, average ('- inducer') / GUS activity, average (with AHL or analog at the stated concentration) / GUS activity, average (+ inducer) / GUS activity, average / fold +/-: reporter TraA8(4X)-GUS + 35S-VP16-TraR; for GUS activity, average (with AHL or analog at the stated concentration): 5 µM of the AHL or analog; for GUS activity, average: 25 µM of the AHL or analog
# T1 construct: PCR fragments containing open reading frames are cloned into an expression construct; expressed in transfected cells; host or cells: carrot protoplasts from cell suspension culture, transient transfection
# Source text: Carrot protoplasts were transfected with the TraA8 (4X)- GUS reporter construct with the 35S-VP16-TraR activator gene and tested for GUS induction by application of wild type AHL and the various AHL analogs described in Example 8. Table 8: Transient assays in carrot protoplasts of AHL analogs
# [2] = test system: HA-VP16-EsaR fusion (pMON53005); experiment: Transient GUS reporter assay in transfected carrot protoplasts with VP16-EsaR effector; type: cell-based, Erwinia sterwartii; settings: reporter esaR box (4X)-GUS pMON53009; dose-dependent, concentration not given; 36 hours
# [3] = ratio of GUS activity at 12.5 µM to that at 5 µM
# [4] = ratio of GUS activity at 75 µM to that at 25 µM
# [5] = ratio of GUS activity at […] to that at 1 µM
SMILES,"GUS activity, average ('- inducer') [1]","GUS activity, average (with AHL or analog at the stated concentration) [1]","GUS activity, average (+ inducer) ([1]; 12.5 µM of the AHL or analog)","GUS activity, average [1]","GUS activity, average (+ inducer) ([1]; 75 µM of the AHL or analog)","fold +/- [1, 3] [fold]","fold +/- [1, 4] [fold]","fold +/- [1, 5] [fold]","GUS activity, average (+ inducer) ([1]; 78 µM as printed)",fold +/- ([1]; ratio of GUS activity at 78 µM to that at 25 µM) [fold],"Fold induction ([1]; 25 [i M] inducer (OOHL, or C6) vs no inducer, reporter pMON53031, pMON53030 60 µg, 36 hrs, 25 µM) [fold]","+ inducer (average of the GUS activities) ([1]; 25 [i M] inducer (OOHL, or C6), reporter pMON53031, pMON53030 60 µg, 36 hrs)",activation by the VP16-EsaR construct diminished by addition of the inducer [2]
"CCCCCC(=O)C(C)(C)C(=O)N[C@@H](CCO)C(=O)O [compound 16, N-(α,α-Dimethyl-b-ketooctanoyl)-(S)-homoserine]",111.8,229.7,509.8,1426.6,4719.8,2.2,3.3,2.8,,,,,
"CCCCCC(=O)C(CC)C(=O)N[C@@H](CCO)C(=O)O (stereo partly drawn) [compound 19, N-(α-Ethyl-b-ketooctanoyl)-(S)-homoserine]",469.6,2239.4,5377.3,6732.3,,2.4,,2.8,7569.1,1.1,,,
"CCCCCC(=O)C(CCCC)C(=O)N[C@@H](CCO)C(=O)O (stereo partly drawn) [compound 25, N-(α-Butyl-b-ketooctanoyl)-(S)-homoserine]",256.9,309.3,284.7,224.2,252.9,0.9,1.1,2.1,,,,,
"CCCC(=O)CC(=O)N[C@H]1CCOC1=O [C6, N-(3-oxohexanoyl)-L-homoserine lactone]",,,,,,,,,,,1.6,568.5,up to 3.3 fold
"CCCCCCC(C(C)=O)C(=O)N[C@@H](CCO)C(=O)O (stereo partly drawn) [compound 26, N-(α-Hexyl-b-ketobutanoyl)-(S)-homoserine]",184.7,387.6,1812.5,1515.3,2879.9,4.7,1.9,1.2,,,,,
"CCCCCC(=O)C(C)C(=O)N[C@@H](CCO)C(=O)O (stereo partly drawn) [compound 7, N-(α-Methyl-b-ketooctanoyl)-(S)-homoserine]",180.2,1071.5,2746.0,2486.3,3209.7,2.6,1.3,1.8,,,,,
